Key:
AMPA receptors = test: field EPSP amplitude in field CA1 of rat hippocampal slice; type: cell-based; settings: rat hippocampal slice
Text: The field EPSP, (excitatory post-synaptic potential) recorded in field CA1 after stimulation of CA3 axons is known to be mediated by AMPA receptors, which are present in the synapses (Kessler et al., Brain Res. 560: 337-341 (1991)). Drugs that selectively block the receptor selectively block the field EPSP (Muller et al., Science, supra). […] These effects are mirrored in the field EPSP (see, for example, Staubli et al., Psychobiology, supra; Xiao et al., Hippocampus, supra; Staubli et al., Hippocampus 2: 4958 (1992)).
To obtain the data shown in Table I, a bipolar nichrome stimulating electrode was positioned in the dendritic layer (stratum radiatum) of the hippocampal subfield CA1 close to the border of subfield CA3, as described in Example 64. Current pulses (0.1 msec) through the stimulating electrode activate a population of the Schaffer-commissural (SC) fibers, which arise from neurons in the subdivision CA3 and terminate in synapses on the dendrites of CA1 neurons. Activation of these synapses causes them to release the transmitter glutamate. Glutamate binds to post-synaptic AMPA receptors, which then transiently open an associated ion channel and permit a sodium current to enter the postsynaptic cell. This current results in a voltage in the extracellular space (the field EPSP), which is recorded by a high impedance recording electrode positioned in the middle of the stratum radiatum of CA1.
The intensity of the stimulation current was adjusted to produce half-maximal EPSPs (typically about 1.5-2.0 mV). Paired stimulation pulses were given every 40 sec with an interpulse interval of 200 msec, as described further in Example 64.
Hippocampal slices were maintained in a recording chamber continuously perfused with artificial cerebrospinal fluid (ACSF). During 15-30 minute intervals, the perfusion medium was switched to one containing various concentrations of the test compounds. Responses collected immediately before and at the end of drug perfusion were superimposed in order to calculate the percent increase in EPSP amplitude.
(§1) The physiological effects of invention compounds were tested in vitro on primary cultures of rat cortical neurons as described by Hamill, O P, et al. in Pflügers Arch 391: 85-100 (1981) or on slices of rat hippocampus according to the following procedure. Excitatory responses (field EPSPs) were measured in hippocampal slices, which were maintained in a recording chamber continuously perfused with artificial cerebrospinal fluid (ACSF). During a 15-30 minute interval, the perfusion medium was switched to one containing various concentrations of the test compounds. Responses collected immediately before and at the end of drug perfusion were superimposed in order to calculate the percent increase in EPSP amplitude.
To conduct these tests, the hippocampus was removed from anesthetized, 2 month old Sprague-Dawley rats and in vitro slices (400 μm thick) were prepared and maintained in an interface chamber at 35° C. using conventional techniques [see, for example, Dunwiddie and Lynch, J. Physiol. 276: 353-367 (1978)]. The chamber was constantly perfused at 0.5 mL/min with ACSF containing (in mM): NaCl 124, KCl 3, KH2PO4 1.25, MgSO4 2.5, CaCl2 3.4, NaHCO3 26, glucose 10 and L-ascorbate 2. A bipolar nichrome stimulating electrode was positioned in the dendritic layer (stratum radiatum) of the hippocampal subfield CA1 close to the border of subfield CA3.
Current pulses (0.1 msec) through the stimulating electrode activate a population of the Schaffer-commissural (SC) fibers, which arise from neurons in the subdivision CA3 and terminate in synapses on the dendrites of CA1 neurons. Activation of these synapses causes them to release the transmitter glutamate. Glutamate binds to the post-synaptic AMPA receptors, which then transiently open an associated ion channel and permit a sodium current to enter the postsynaptic cell. […]

AMPA receptor = test: steady-state current induced by glutamate in cortical neurons in primary culture; type: cell-based, rat; settings: 300 μM glutamate on cultured neurons
Experimental: as §1

Compound: O=C(c1ccc2c(c1)OC1CCCN1C2=O)N1CCCCC1 (racemic) [Example 5, (R,S)-6-(Piperidylcarbonyl)-3aH-benzo[e]pyrrolidino[2,1-b]1,3-oxazaperhydroin-9-one]
- AMP: concentration of modulator that increases the amplitude of the fEPSP by 10% (AMPA receptors): 10 µM
- EC2X: concentration of modulator required to double the steady state current (AMPA receptor): 2 µM

Compound: O=C1CCCN1CCCN1COc2cc3c(cc2C1=O)OC1CCCN1C3=O (racemic) [Example 27, (R,S)-3-[3-(2-oxopyrrolidinyl)propyl]-2H,6aH-pyrrolidino[2″,1″-3′,2′]1,3-oxazino[5′,6′-4,5]benzo[e]1,3-oxazaperhydroine-4,10-dione]
- melting point: 189 to 190 °C
- AMP: concentration of modulator that increases the amplitude of the fEPSP by 10% (AMPA receptors): 10 µM
- EC2X: concentration of modulator required to double the steady state current (AMPA receptor): 1 µM

Compound: O=C1c2cc3c(cc2OC2CCCN12)OC1CCCN1C3=O [Example 2, (R,S), (R,S)-3aH,6aH-pyrrolidino[2,1-b]pyrrolidino[2″,1″-3′,2′](1,3-oxazino)[6′,5′-2,1]benzo[4,5-e]1,3-oxazaperhydroine-10,12-dione]
- AMP: concentration of modulator that increases the amplitude of the fEPSP by 10% (AMPA receptors): >10 µM
- EC2X: concentration of modulator required to double the steady state current (AMPA receptor): 2.6 µM

Compound: O=C1c2cc3nc4n(c(=O)c3cc2OC2CCCN12)CCC4 (racemic) [Example 6, (R,S)-6a-hydro-3aH-pyrrolidino[2,1-b]pyrrolidino[2′,1′-2,3]quinazolino[7,6-e]1,3-oxazaperhydroine-6,12-dione]
- AMP: concentration of modulator that increases the amplitude of the fEPSP by 10% (AMPA receptors): 100 µM
- EC2X: concentration of modulator required to double the steady state current (AMPA receptor): 1.4 µM

Compound: O=C1c2cc3c(cc2OCC1CO)C(=O)N1CCCC1O3 [Example 20, (R,S),(R,S)-3-(hydroxymethyl)-6aH-chromano[7,6-e]pyrrolidino[2,1-b]1,3-oxazine-4,10-dione]
- melting point: 189 to 190 °C

Compound: O=C1c2cc3c(cc2OCN1CCO)C(=O)N(CCO)CO3 [Example 59, 3,8-bis(2-hydroxyethyl)-2H,7H-1,3-oxazaperhydroino[5′,6′-4,5]benzo[e]1,3-oxazine-4,9-dione]
- melting point: 237 to 238 °C

Compound: CN1COc2cc3c(cc2C1=O)OC1CCCN1C3=O (racemic) [Example 22, (R,S)-3-methyl-2H,6aH-pyrrolidino[2″,1″-3′,2′]1,3-oxazino[5′,6′-4,5]benzo[e]1,3-oxazaperhydroine-4,10-dione]
- melting point: 195 to 196 °C
- AMP: concentration of modulator that increases the amplitude of the fEPSP by 10% (AMPA receptors): 10 µM
- EC2X: concentration of modulator required to double the steady state current (AMPA receptor): 0.2 µM

Compound: CCCN1COc2cc3c(cc2C1=O)OC1CCCN1C3=O (racemic) [Example 24, (R,S)-3-propyl-2H,6aH-pyrrolidino[2″,1″-3′,2′]1,3-oxazino[5′,6′-4,5]benzo[e]1,3-oxazaperhydroine-4,10-dione]
- melting point: 153 to 154 °C

Compound: O=C1NCOc2cc3c(cc21)OC1CCCN1C3=O (racemic) [Example 58, (R,S)-2H,3H,6aH-pyrrolidino[2″,1″-3′,2′]1,3-oxazino[5′,6′-4,5]benzo[e]1,3-oxazaperhydroine-4,10-dione]
- melting point: 270 to 275 °C (dec.)

Compound: O=C1c2cc3c(cc2OCN1Cc1ccc2c(c1)OCO2)C(=O)N1CCCC1O3 (racemic) [Example 28, (R,S)-3-(2H-benzo[d]1,3-dioxolen-5-ylmethyl)-2H,6aH-pyrrolidino[2″,1″-3′,2′]1,3-oxazino[5′,6′-4,5]benzo[e]1,3-oxazaperhydroine-4,10-dione]
- AMP: concentration of modulator that increases the amplitude of the fEPSP by 10% (AMPA receptors): 10 µM
- EC2X: concentration of modulator required to double the steady state current (AMPA receptor): 6 µM

Compound: O=C1c2cc3c(cc2OCN1CC(F)(F)F)C(=O)N1CCCC1O3 (racemic) [Example 29, (R,S)-3-(2,2,2-trifluoroethyl)-2H,6aH-pyrrolidino[2″,1″-3′,2′]1,3-oxazino[5′,6′-4,5]benzo[e]1,3-oxazaperhydroine-4,10-dione]
- melting point: 179 to 180 °C

Compound: CCN1COc2cc(C(=O)C3CCCCC3)ccc2C1=O [Example 38, 7-(cyclohexylcarbonyl)-3-ethyl-2H-benzo[e]1,3-oxazaperhydroin-4-one]
- AMP: concentration of modulator that increases the amplitude of the fEPSP by 10% (AMPA receptors): 30 µM
- EC2X: concentration of modulator required to double the steady state current (AMPA receptor): 15 µM

Compound: CC1CCN(C(=O)c2ccc3c(c2)OC2CCCN2C3=O)CC1 (racemic) [Example 18, (R,S)-6-[(4-methylpiperidyl)carbonyl]-3aH-benzo[e]pyrrolidino[2,1-b]1,3-oxazin-9-one]
- AMP: concentration of modulator that increases the amplitude of the fEPSP by 10% (AMPA receptors): 100 µM
- EC2X: concentration of modulator required to double the steady state current (AMPA receptor): 4 µM

Compound: O=C1c2cc3c(cc2OCN1C1CCCC1)C(=O)N1CCCC1O3 (racemic) [Example 26, (R,S)-3-cyclopentyl-2H,6aH-pyrrolidino[2″,1″-3′,2′]1,3-oxazino[5′,6′-4,5]benzo[e]1,3-oxazaperhydroine-4,10-dione]
- melting point: 184 to 188 °C

Compound: O=C1c2cc3c(cc2OC2CCCN12)C(=O)N1OCCC1O3 [Example 46, (R,S), (R,S)-2H,3H,3aH,9aH--1,2-oxazolidino[3,2-b]pyrrolidino[2″,1″-3′,2′](1,3-oxazino)[5′,6′-5,4]benzo[e]1,3-oxazaperhydroine-6,12-dione]
- AMP: concentration of modulator that increases the amplitude of the fEPSP by 10% (AMPA receptors): 3 µM
- EC2X: concentration of modulator required to double the steady state current (AMPA receptor): 2.4 µM

Compound: COC(=O)CN1COc2cc3c(cc2C1=O)OC1CCCN1C3=O (racemic) [Example 33, (R,S)-methyl 2-(4,10-dioxo-2H,6aH-pyrrolidino[2″,1″-3′,2′]1,3-oxazino[5′,6′-4,5]benzo[e]1,3-oxazaperhydroin-3-yl)acetate]
- melting point: 161 to 162 °C

Compound: O=C(CN1COc2cc3c(cc2C1=O)OC1CCCN1C3=O)N1CCCC1 (racemic) [Example 34, (R,S)-3-(2-oxo-2-pyrrolidinylethyl)-2H,6aH-pyrrolidin[2″,1″-3′,2′]1,3-oxazino[5′,6′-4,5]benzo[e]1,3-oxazaperhydroine-4,10-dione]
- melting point: 257 to 259 °C

Compound: CCN1COc2cc3c(cc2C1=O)OC1CCCN1C3=O (racemic) [Example 23, (R,S)-3-ethyl-2H,6aH-pyrrolidino[2″,1″-3′,2′]1,3-oxazino[5′,6′-4,5]benzo[e]1,3-oxazaperhydroine-4,10-dione]
- melting point: 197 to 198 °C

Compound: O=C1c2cc3c(cc2OC2CCCN12)C(=O)N1CCOC1O3 [Example 11, (R,S), (R,S)-2H,3H,12aH,6aH-1,3-oxazolidino[2,3-b]pyrrolidino[2″,1″-2′,3′](1,3-oxazino)[5′,6′-2,1]benzo[4,5-e]1,3-oxazaperhydroine-4,10-dione]
- AMP: concentration of modulator that increases the amplitude of the fEPSP by 10% (AMPA receptors): 1 µM
- EC2X: concentration of modulator required to double the steady state current (AMPA receptor): 0.09 µM

Compound: O=C1c2cc3c(cc2OCN1CCCN1CCOCC1)C(=O)N1CCCC1O3 (racemic) [Example 32, (R,S)-3-(3-morpholin-4-ylpropyl)-2H,6aH-pyrrolidino [2″,1″-3′,2′]1,3-oxazino[5′,6′-4,5]benzo[e]1,3-oxazaperhydroine-4,10-dione]
- melting point: 153 to 155 °C

Compound: CC(C)N1COc2cc3c(cc2C1=O)OC1CCCN1C3=O (racemic) [Example 25, (R,S)-3-(methylethyl)-2H,6aH-pyrrolidino[2″,1″-3′,2′]1,3-oxazino[5′,6′-4,5]benzo[e]1,3-oxazaperhydroine-4,10-dione]
- melting point: 204 to 205 °C
